The values that follow are results of earlier work, collected in publication PMC10975502 (Methods in molecular biology (Clifton, N.J.), 2022).

For the data set the following is noted: result in words.

Regarding cyclo(FfΦRrRrQ) [CPP12], the “activity in cytosolic delivery” value is “high activity”.
